# From publication PMC4845010, “Three TaFAR genes function in the biosynthesis of primary alcohols and the response to abiotic stresses in Triticum aestivum” (Scientific Reports, 2016)
# Molecular target: T1, TaFAR3 (Triticum aestivum, UniProt A0A142IX60)
# T1 construct: gene FAR3; full-length ORF, 497 residues (1,494 bp), untagged expression from pYES2/pYES3 in Saccharomyces cerevisiae; gene on chromosome 4BS
# T1 sequence (A0A142IX60 1-497): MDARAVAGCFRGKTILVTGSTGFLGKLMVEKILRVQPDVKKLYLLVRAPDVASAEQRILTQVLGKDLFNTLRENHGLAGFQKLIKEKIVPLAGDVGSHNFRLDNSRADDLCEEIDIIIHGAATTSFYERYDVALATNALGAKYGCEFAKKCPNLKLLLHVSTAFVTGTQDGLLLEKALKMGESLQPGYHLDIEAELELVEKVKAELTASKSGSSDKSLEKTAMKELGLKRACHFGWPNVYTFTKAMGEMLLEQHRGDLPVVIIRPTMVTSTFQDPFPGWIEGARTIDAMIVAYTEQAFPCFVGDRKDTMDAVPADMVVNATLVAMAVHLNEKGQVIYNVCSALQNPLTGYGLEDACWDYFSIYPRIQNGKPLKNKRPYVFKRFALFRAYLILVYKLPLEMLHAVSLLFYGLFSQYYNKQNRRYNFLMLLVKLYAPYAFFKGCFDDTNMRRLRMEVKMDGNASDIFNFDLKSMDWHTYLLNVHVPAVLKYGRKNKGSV
# Test: heterologous expression in yeast, lipid extraction, TLC and GC-MS
# Format: cell-based
# Conditions: yeast mutant INVSur4# (Sur4 F262A/K266L); endogenous acyl-CoA substrates; none in empty-vector control
structure (smiles),measurement,value
CCCCCCCCCCCCCCCCCCCCCCCCCCCCO [C28:0-OH],"heterologous expression in yeast, lipid extraction, TLC and GC-MS","In the case of TaFAR3, the highest production of primary alcohol was C28:0-OH"
